“And” between values parts separate entries of the source, which are not always exact repeats. Equal values may be shown once. Inconclusive results and toxic doses are left out. Rule as the data show it: active = T/C of 150% or more; inactive = T/C below 125%.
System: L1210 leukemia ip in BDF1 mice, survival T/C
Experiment: NCI In Vivo Anticancer Drug Screen. Data for tumor model L1210 Leukemia (intraperitoneal) in B6D2F1 (BDF1) mice
Conditions: endpoint: mean survival time, higher = longer survival
Outline: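 Value reflects the ratio of survival in compound-treated mice to survival in vehicle-treated controls, with both groups carrying the same transplanted tumor.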

[1] = dose: 100.0 mg/kg/injection, schedule: Q01DX009 (ip), vehicle: Klucel (hydroxypropylcellulose) (HPC)
[2] = dose: 40.0 mg/kg/injection, schedule: Q01DX001 (ip), vehicle: saline
[3] = dose: 100.0 mg/kg/injection, schedule: Q01DX009 (ip), vehicle: saline with Tween-80
[4] = dose: 200.0 mg/kg/injection, schedule: Q01DX009 (ip), vehicle: saline with Tween-80
[5] = dose: 400.0 mg/kg/injection, schedule: Q01DX009 (ip), vehicle: saline with Tween-80
[6] = dose: 50.0 mg/kg/injection, schedule: Q01DX009 (ip), vehicle: saline with Tween-80
[7] = dose: 100.0 mg/kg/injection, schedule: Q01DX001 (ip), vehicle: carboxymethylcellulose (CMC)
[8] = dose: 200.0 mg/kg/injection, schedule: Q01DX001 (ip), vehicle: carboxymethylcellulose (CMC)
[9] = dose: 400.0 mg/kg/injection, schedule: Q01DX001 (ip), vehicle: carboxymethylcellulose (CMC)

Measured: T/C

COc1ccc(/C=N/N=C(N)N)cc1S(=O)(=O)O
inactive: dose: 15.0 mg/kg/injection, schedule: Q01DX Z (ip), vehicle: saline 95 % of control | dose: 30.0 mg/kg/injection, schedule: Q01DX Z (ip), vehicle: saline 90 % of control | dose: 60.0 mg/kg/injection, schedule: Q01DX Z (ip), vehicle: saline 88 % of control | dose: 60.0 mg/kg/injection, schedule: Q01DX Z (oral), vehicle: saline 95 % of control | dose: 120.0 mg/kg/injection, schedule: Q01DX Z (ip), vehicle: saline 92 % of control | dose: 120.0 mg/kg/injection, schedule: Q01DX Z (oral), vehicle: saline 97 % of control | dose: 240.0 mg/kg/injection, schedule: Q01DX Z (oral), vehicle: saline 97 % of control | dose: 480.0 mg/kg/injection, schedule: Q01DX Z (oral), vehicle: saline 98 % of control

CCOc1ccc(/C=N/NC(=S)NC23CC4CC(CC(C4)C2)C3)cc1OCC
inactive: dose: 75.0 mg/kg/injection, schedule: Q01DX001 (ip), vehicle: saline 94 % of control | dose: 150.0 mg/kg/injection, schedule: Q01DX001 (ip), vehicle: saline 95 % of control | dose: 300.0 mg/kg/injection, schedule: Q01DX001 (ip), vehicle: saline 94 % of control

CCCNC(=O)c1cccc(-c2cccc(C(=O)NCCC)c2)c1
inactive: dose: 200.0 mg/kg/injection, schedule: Q01DX001 (ip), vehicle: other 93 % of control

CC(=O)Nc1ccccc1Sc1ccc(Br)cc1[N+](=O)[O-]
inactive: dose: 75.0 mg/kg/injection, schedule: Q04DX003 (ip), vehicle: saline 91 % of control | dose: 150.0 mg/kg/injection, schedule: Q04DX003 (ip), vehicle: saline 90 % of control | dose: 300.0 mg/kg/injection, schedule: Q04DX003 (ip), vehicle: saline 87 % of control

CCOP(=O)(CN1CCCCC1)OCC
inactive: dose: 100.0 mg/kg/injection, schedule: Q04DX002 (ip), vehicle: saline 104 % of control | dose: 200.0 mg/kg/injection, schedule: Q04DX002 (ip), vehicle: saline 96 % of control | dose: 400.0 mg/kg/injection, schedule: Q04DX002 (ip), vehicle: saline 104 % of control

O=C(Nc1ccccc1O)c1ccc([N+](=O)[O-])cc1
inactive: [1] 100 % of control | dose: 200.0 mg/kg/injection, schedule: Q01DX009 (ip), vehicle: Klucel (hydroxypropylcellulose) (HPC) 91 % of control | dose: 400.0 mg/kg/injection, schedule: Q01DX009 (ip), vehicle: Klucel (hydroxypropylcellulose) (HPC) 93 % of control

COCCNC(=O)N(CCOC)N=O
inactive: dose: 9.0 mg/kg/injection, schedule: Q01DX001 (ip), vehicle: saline 101 % of control | dose: 13.0 mg/kg/injection, schedule: Q01DX001 (ip), vehicle: saline 96 % of control | dose: 26.0 mg/kg/injection, schedule: Q01DX001 (ip), vehicle: saline 102 % of control | [2] 104 % of control | dose: 60.0 mg/kg/injection, schedule: Q01DX001 (ip), vehicle: saline 102 % of control | dose: 93.0 mg/kg/injection, schedule: Q01DX001 (ip), vehicle: saline 95 % of control | dose: 187.0 mg/kg/injection, schedule: Q01DX001 (ip), vehicle: saline 112 % of control | dose: 250.0 mg/kg/injection, schedule: Q01DX001 (ip), vehicle: saline 113 % of control | dose: 500.0 mg/kg/injection, schedule: Q01DX001 (ip), vehicle: saline 112 % of control

COc1ccc(C(N)=O)c(C)c1OC
inactive: dose: 50.0 mg/kg/injection, schedule: Q01DX001 (ip), vehicle: saline 98 % of control | dose: 100.0 mg/kg/injection, schedule: Q01DX001 (ip), vehicle: saline 95 % of control | dose: 200.0 mg/kg/injection, schedule: Q01DX001 (ip), vehicle: saline 95 % of control | dose: 400.0 mg/kg/injection, schedule: Q01DX001 (ip), vehicle: saline 95 % of control

O=C1CCCN1C(=O)c1ccccc1
inactive: [3] 101 % of control | [4] 95 % of control | [5] 95 % of control

CCCOCCC(c1ccccc1)(c1ccccc1)c1ccccc1
inactive: dose: 12.5 mg/kg/injection, schedule: Q01DX009 (ip), vehicle: saline with Tween-80 98 % of control | dose: 25.0 mg/kg/injection, schedule: Q01DX009 (ip), vehicle: saline with Tween-80 98 % of control | [6] 95 % of control | [4] 87 % of control

CCc1c(N)nc(N)nc1Cl
inactive: dose: 25.0 mg/kg/injection, schedule: Q01DX Z (ip), vehicle: methylcellulose (MC) 91 % of control

CCC(=O)C(CCCN(C)C)(c1ccccc1)c1ccccc1
inactive: dose: 5.0 mg/kg/injection, schedule: Q01DX001 (ip), vehicle: saline 107 % of control | dose: 10.0 mg/kg/injection, schedule: Q01DX001 (ip), vehicle: saline 104 % of control | dose: 20.0 mg/kg/injection, schedule: Q01DX001 (ip), vehicle: saline 93 % of control | [2] 98 % of control

COc1ccc(CN2CCCN(Cc3ccc(OC)cc3)C2c2ccc(OC)cc2)cc1
inactive: [3] 92 % of control | dose: 100.0 mg/kg/injection, schedule: Q04DX003 (ip), vehicle: acetone 94 % of control | [4] 98 % of control and 87 % of control | dose: 200.0 mg/kg/injection, schedule: Q04DX003 (ip), vehicle: acetone 97 % of control | [5] 96 % of control | dose: 400.0 mg/kg/injection, schedule: Q04DX003 (ip), vehicle: acetone 95 % of control

O=S(=O)(C(Cl)(Cl)Cl)C(Cl)(Cl)Cl
inactive: dose: 25.0 mg/kg/injection, schedule: Q01DX009 (ip), vehicle: Klucel (hydroxypropylcellulose) (HPC) 95 % of control | dose: 50.0 mg/kg/injection, schedule: Q01DX009 (ip), vehicle: Klucel (hydroxypropylcellulose) (HPC) 98 % of control | [1] 93 % of control

CCCCC(=O)N/N=C\c1cc(Cl)cc(Cl)c1
inactive: [7] 100 % of control | [8] 93 % of control | [9] 96 % of control

Cc1cc(C)c(C(=O)c2ccccc2)c(=O)o1
inactive: dose: 10.0 mg/kg/injection, schedule: Q01DX001 (ip), vehicle: carboxymethylcellulose (CMC) 100 % of control | dose: 20.0 mg/kg/injection, schedule: Q01DX001 (ip), vehicle: carboxymethylcellulose (CMC) 100 % of control | dose: 40.0 mg/kg/injection, schedule: Q01DX001 (ip), vehicle: carboxymethylcellulose (CMC) 97 % of control | [9] 103 % of control

CC1([N+](=O)[O-])COP(=O)(Nc2ccc(Cl)cc2)OC1 (stereo not given)
inactive: [7] 95 % of control | [8] 93 % of control | [9] 98 % of control

O=C(NCc1cnccn1)OCC(Cl)(Cl)Cl
inactive: [3] 97 % of control | [4] 106 % of control | [5] 103 % of control

CN(C)CC1CCCCC1OC(=O)c1ccccc1 (stereo not given)
inactive: [6] 91 % of control | [3] 94 % of control

Source: PubChem BioAssay AID248 (DTP/NCI, 2004)
